# According to ChEMBL document CHEMBL3885881, “DrugMatrix”:
# Species on record: Rattus norvegicus
# Assay: DrugMatrix - Regimen: Daily Repeat
# Type: toxicity, organism-based, Sprague-Dawley
# Design: regimen Daily Repeat, gender Male, age 6-8 weeks
# Settings: in vivo, po, 20 mg/kg, route oral GAVAGE, dose level Low, vehicle .5 % CMC; for ABSOLUTE BASOPHIL / ABSOLUTE EOSINOPHIL / ABSOLUTE LYMPHOCYTE / ABSOLUTE MONOCYTE / ABSOLUTE SEGMENTED NEUTROPHIL / BASOPHIL / EOSINOPHIL / ERYTHROCYTE COUNT / HEMATOCRIT / HEMOGLOBIN / LEUKOCYTE COUNT / LYMPHOCYTE / MEAN CORPUSCULAR HEMOGLOBIN / MEAN CORPUSCULAR HEMOGLOBIN CONCENTRATION / MEAN CORPUSCULAR VOLUME / MONOCYTE / NEUTROPHIL / NUCLEATED RED BLOOD CELLS / PLATELET COUNT: tissue Blood; for ALANINE AMINOTRANSFERASE / ALBUMIN / ALKALINE PHOSPHATASE / ASPARTATE AMINOTRANSFERASE / BLOOD UREA NITROGEN / CARBON DIOXIDE / CHLORIDE / CHOLESTEROL / CREATINE PHOSPHOKINASE / CREATININE / GLUCOSE / LACTATE DEHYDROGENASE / LIPASE / PHOSPHORUS / POTASSIUM / SODIUM / TOTAL BILIRUBIN / TOTAL PROTEIN / URIC ACID: tissue Plasma
structure (smiles),measurement,setting,value
CCCCCCNC(=O)n1cc(F)c(=O)[nH]c1=O [CARMOFUR],ABSOLUTE BASOPHIL,"72 h, time 3 day",0 CELLS/uL
same,ABSOLUTE EOSINOPHIL,"72 h, time 3 day",56 CELLS/uL
same,ABSOLUTE LYMPHOCYTE,"72 h, time 3 day",15579 CELLS/uL
same,ABSOLUTE MONOCYTE,"72 h, time 3 day",284.33 CELLS/uL
same,ABSOLUTE SEGMENTED NEUTROPHIL,"72 h, time 3 day",1314 CELLS/uL
same,BASOPHIL,"72 h, time 3 day",0%
same,EOSINOPHIL,"72 h, time 3 day",0.33%
same,ERYTHROCYTE COUNT,"72 h, time 3 day",5.63 x10E6/uL
same,HEMATOCRIT,"72 h, time 3 day",35.8%
same,HEMOGLOBIN,"72 h, time 3 day",14.23 G/DL
same,LEUKOCYTE COUNT,"72 h, time 3 day",17.23 x10E3/uL
same,LYMPHOCYTE,"72 h, time 3 day",90.33%
same,MEAN CORPUSCULAR HEMOGLOBIN,"72 h, time 3 day",25.27 pg
same,MEAN CORPUSCULAR HEMOGLOBIN CONCENTRATION,"72 h, time 3 day",39.8 G/DL
same,MEAN CORPUSCULAR VOLUME,"72 h, time 3 day",63.6 fL
same,MONOCYTE,"72 h, time 3 day",1.67%
same,NEUTROPHIL,"72 h, time 3 day",7.67%
same,NUCLEATED RED BLOOD CELLS,"72 h, time 3 day",0 /100WBC
same,PLATELET COUNT,"72 h, time 3 day",1328 x10E3/uL
same,ALANINE AMINOTRANSFERASE,"72 h, time 3 day",51 u/L
same,ALBUMIN,"72 h, time 3 day",4.43 G/DL
same,ALKALINE PHOSPHATASE,"72 h, time 3 day",409 u/L
same,ASPARTATE AMINOTRANSFERASE,"72 h, time 3 day",85.67 u/L
same,BLOOD UREA NITROGEN,"72 h, time 3 day",13 mg/dL
same,CARBON DIOXIDE,"72 h, time 3 day",22.67 mmol/L
same,CHLORIDE,"72 h, time 3 day",103.67 MEQ/L
same,CHOLESTEROL,"72 h, time 3 day",70.67 mg/dL
same,CREATINE PHOSPHOKINASE,"72 h, time 3 day",301.67 u/L
same,CREATININE,"72 h, time 3 day",0.18 mg/dL
same,GLUCOSE,"72 h, time 3 day",161 mg/dL
same,LACTATE DEHYDROGENASE,"72 h, time 3 day",305.33 u/L
same,LIPASE,"72 h, time 3 day",9 u/L
same,PHOSPHORUS,"72 h, time 3 day",12.3 mg/dL
same,POTASSIUM,"72 h, time 3 day",6.94 MEQ/L
same,SODIUM,"72 h, time 3 day",146.4 MEQ/L
same,TOTAL BILIRUBIN,"72 h, time 3 day",0.17 mg/dL
same,TOTAL PROTEIN,"72 h, time 3 day",6.13 G/DL
same,URIC ACID,"72 h, time 3 day",1.63 mg/dL
same,ABSOLUTE BASOPHIL,"120 h, time 5 day",0 CELLS/uL
same,ABSOLUTE EOSINOPHIL,"120 h, time 5 day",222.67 CELLS/uL
same,ABSOLUTE LYMPHOCYTE,"120 h, time 5 day",15078.33 CELLS/uL
same,ABSOLUTE MONOCYTE,"120 h, time 5 day",213.33 CELLS/uL
same,ABSOLUTE SEGMENTED NEUTROPHIL,"120 h, time 5 day",719 CELLS/uL
same,BASOPHIL,"120 h, time 5 day",0%
same,EOSINOPHIL,"120 h, time 5 day",1.33%
same,ERYTHROCYTE COUNT,"120 h, time 5 day",5.39 x10E6/uL
same,HEMATOCRIT,"120 h, time 5 day",34.47%
same,HEMOGLOBIN,"120 h, time 5 day",13.83 G/DL
same,LEUKOCYTE COUNT,"120 h, time 5 day",16.23 x10E3/uL
same,LYMPHOCYTE,"120 h, time 5 day",93%
same,MEAN CORPUSCULAR HEMOGLOBIN,"120 h, time 5 day",25.67 pg
same,MEAN CORPUSCULAR HEMOGLOBIN CONCENTRATION,"120 h, time 5 day",40.1 G/DL
same,MEAN CORPUSCULAR VOLUME,"120 h, time 5 day",64 fL
same,MONOCYTE,"120 h, time 5 day",1.33%
same,NEUTROPHIL,"120 h, time 5 day",4.33%
same,NUCLEATED RED BLOOD CELLS,"120 h, time 5 day",0 /100WBC
same,PLATELET COUNT,"120 h, time 5 day",1330.33 x10E3/uL
same,ALANINE AMINOTRANSFERASE,"120 h, time 5 day",47.67 u/L
same,ALBUMIN,"120 h, time 5 day",4.3 G/DL
same,ALKALINE PHOSPHATASE,"120 h, time 5 day",311 u/L
same,ASPARTATE AMINOTRANSFERASE,"120 h, time 5 day",74.33 u/L
same,BLOOD UREA NITROGEN,"120 h, time 5 day",14 mg/dL
same,CARBON DIOXIDE,"120 h, time 5 day",23 mmol/L
same,CHLORIDE,"120 h, time 5 day",103.33 MEQ/L
same,CHOLESTEROL,"120 h, time 5 day",73.33 mg/dL
same,CREATINE PHOSPHOKINASE,"120 h, time 5 day",245.33 u/L
same,CREATININE,"120 h, time 5 day",0.12 mg/dL
same,GLUCOSE,"120 h, time 5 day",149 mg/dL
same,LACTATE DEHYDROGENASE,"120 h, time 5 day",124.33 u/L
same,LIPASE,"120 h, time 5 day",8 u/L
same,PHOSPHORUS,"120 h, time 5 day",12.67 mg/dL
same,POTASSIUM,"120 h, time 5 day",6.45 MEQ/L
same,SODIUM,"120 h, time 5 day",145.27 MEQ/L
same,TOTAL BILIRUBIN,"120 h, time 5 day",0.23 mg/dL
same,TOTAL PROTEIN,"120 h, time 5 day",6.07 G/DL
same,URIC ACID,"120 h, time 5 day",1.57 mg/dL
